In US5888504A, “Natural composition for combatting fungi” (Van den Bergh Foods Co., Division of Conopco, Inc., priority 1995, dated 1999):
Entries after “also recorded” stand apart in the source; their conditions may differ.

How the values were obtained:
Assay type in all cases: cell-based
Paecilomyces variotii [1] = experiment: Extent of outgrowth of Paecilomyces variotii in malt extract broth in serum bottles; conditions: 1 μM carvacrol, absence of enzyme; observed during ten days
Procedure: Solutions (30 ml) were prepared containing […] dissolved in malt extract broth. Novozyme™234 was present in concentrations of 1, 0.1 and 0 mg/ml. For comparison a solution was prepared containing 1 mg/ml of Novozyme™, but without carvacrol and one in which both enzyme and carvacrol were absent. 50 ml serum bottles filled with the solutions were inoculated with 1000 spores of Paecilomyces variotii. The height of the bars of FIG. 5 indicates the extent of outgrowth of the fungi observed during ten days. The highest bars ("100") indicate full outgrowth of the fungi, which occurs in solutions without carvacrol and with 1 mg/ml or less enzyme. Observed growth inhibition is expressed by the "50" bars. The presence of 1 μM carvacrol causes inhibition of growth, even in the absence of enzyme. When 1 mg/ml of enzyme is present together with 1 μM of carvacrol even germination of the fungal spores ("25" bars) does no longer occurs.

Aspergillus niger = experiment: Outgrowth of Aspergillus niger spores in malt extract broth/agar, microtitre plate, OD 620 nm; conditions: no enzyme
Procedure: An aqueous solution (demineralised water) was prepared containing 0.2 wt. % of the antifungal substance NovoZyme™ 234 and 0.002 wt. % of nisin. 75 μl of the solution were warmed to 20° C. and added to the well of a microtitre plate. Then 75 μl of a solution containing 4 wt. % of malt extract broth (ex Oxoid), 0.75 wt. % of agar (ex Difco) and 1000 spores of the fungus Aspergillus niger was heated to 25° C. and added to the test solution in the well (pH 5.1).
The procedure was repeated with solutions containing 0.004, 0.008, 0.016, 0.032 and 0.064 wt. % of nisin. The contents of the wells were thoroughly mixed and 75 μl of paraffin oil was loaded on top of the mixture. Finally, the plates were sealed with an oxygen permeable foil (Merlin).
During 360 hours the OD 620 nm was measured at regular intervals using a Multiscan devise MCC 340. Fungal outgrowth was defined when an OD (optical density) increase of at least 0.1 occurred.
[…] 75 μl of the solution were warmed to 20° C. and added to the well of a microtitre plate. Then 75 μl of a solution containing 4 wt. % malt extract broth (ex Oxoid), 0.75 wt. % agar (ex Difco) and 1000 spores of the fungus Aspergillus niger was heated to 25° C. and added to the test solution in the well (pH 5.1). […] During 360 hours the OD 620 nm was measured at regular intervals using a Multiscan devise MCC 340. […]

Paecilomyces variotii [2] = experiment: Outgrowth of Paecilomyces variotii spores, microtitre plate (Example 2 repeated); conditions: histatin without enzyme
Procedure: An aqueous solution (demineralised water) was prepared containing 0.2 wt. % of the antifungal substance NovoZyme™ 234 and 0.002 wt. % of histatin. 75 μl of the solution were warmed to 20° C. and added to the well of a microtitre plate. Then 75 μl of a solution containing 4 wt. % malt extract broth (ex Oxoid), 0.75 wt. % agar (ex Difco) and 1000 spores of the fungus Aspergillus niger was heated to 25° C. and added to the test solution in the well (pH 5.1). The procedure was repeated with solutions containing 0.004, 0.008, 0.016, 0.032 and 0.064 wt. % of histatin. The contents of the wells were thoroughly mixed and 75 μl of paraffin oil was loaded on top of the mixture. Finally, the plates were sealed with an oxygen permeable foil (Merlin). During 360 hours the OD 620 nm was measured at regular intervals using a Multiscan devise MCC 340. Fungal outgrowth was defined when an OD increase of at least 0.1 occurred.
Example 2 is repeated with the fungus Paecilomyces variotii.

Penicillium roqueforti = experiment: Outgrowth of Penicillium roqueforti inoculated on processed cheese; conditions: nisin 0.05 wt. % or NovoZyme 234 2 wt. % singly
Description: The surface of processed cheese was inoculated in the centre with Penicillium roqueforti. Admixture of nisin of the lytic enzymes was done in a laminar air flow cabinet. The samples were observed during 16 days (see FIG. 7).
Fungal growth is expressed as the diameter of the colonies. When NovoZyme™ 234 (2 wt. %) was present fungal outgrowth was considerably delayed and became visible only after 12 days.

## Cc1ccc(C(C)C)cc1O [carvacrol]
Paecilomyces variotii [1]
  extent of outgrowth (height of bar): 50

## histatin
Aspergillus niger; histatin 0 to 0.032 wt. %, particularly at 0.008 wt. % and higher
  retarding fungal growth (time needed for outgrowth): slightly active in retarding fungal growth
Paecilomyces variotii [2]
  concentration at which fungal growth inhibition is shown: ≥ 0.004 wt. %

## nisin
Aspergillus niger; nisin 0 to 0.032 wt. %, pH 5.1, followed 360 hours
  effect on postponing the onset of fungal growth (time needed for outgrowth): no fungal growth inhibition has been observed; also recorded: no substantial effect
Penicillium roqueforti
  time after which fungal outgrowth showed: 4 days
